Our source for the EC50 values is publication PMC5316530, “The Ratio of 2-AG to Its Isomer 1-AG as an Intrinsic Fine Tuning Mechanism of CB1 Receptor Activation” (Frontiers in Cellular Neuroscience, 2017).

Structures are written as SMILES.

This experiment concerns the target T1, CB1 receptor (Mus musculus, UniProt P47746).
T1 construct: gene Cnr1; pcDNA3 CB1 (Addgene plasmid # 13391) overexpressed in COS7 cells
Nature of the experiment: Fluo-8 Ca2+ imaging in CB1-transfected COS7 cells; concentration-response, blocked by AM251. Type of experiment: cell-based.

T1 sequence (P47746 whole entry): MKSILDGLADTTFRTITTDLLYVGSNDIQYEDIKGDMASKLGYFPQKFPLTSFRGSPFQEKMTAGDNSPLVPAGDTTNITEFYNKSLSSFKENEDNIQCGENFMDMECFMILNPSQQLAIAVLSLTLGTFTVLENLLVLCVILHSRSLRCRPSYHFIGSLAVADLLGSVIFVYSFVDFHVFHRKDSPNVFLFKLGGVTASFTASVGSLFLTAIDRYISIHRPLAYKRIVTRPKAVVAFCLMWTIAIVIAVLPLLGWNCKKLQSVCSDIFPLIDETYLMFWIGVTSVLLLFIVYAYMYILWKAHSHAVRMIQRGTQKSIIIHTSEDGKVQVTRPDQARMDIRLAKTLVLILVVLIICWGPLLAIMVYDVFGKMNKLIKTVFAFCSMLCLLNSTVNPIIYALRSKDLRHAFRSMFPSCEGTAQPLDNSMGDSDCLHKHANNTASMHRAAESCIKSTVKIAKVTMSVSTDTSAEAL

On to `CCCCC/C=C\C/C=C\C/C=C\C/C=C\CCCC(=O)OC[C@@H](O)CO` [1-AG], for which the concentration giving a half-maximal response (EC50) was determined as 1.9 µM.

Turning to `CCCCC/C=C\C/C=C\C/C=C\C/C=C\CCCC(=O)OC(CO)CO` [2-AG], the EC50 was 0.6 µM.
